Laboratory results reported in patent US20170216295A1, “CCR9 ANTAGONIST COMPOUNDS” (Merck Sharp & Dohme Corp., priority 2014, published 2017).

Assays:
CCR9 receptor = target: T1, CCR9 receptor (Homo sapiens, UniProt P51686); assay: Calcium mobilization (Ca FLIPR) assay, antagonist mode vs TECK; assay type: cell-based; details: for LipE: LipE = pIC50-clogD; for IC50: cells expressing CCR9, TECK at EC80 0.01 uM, read-out: CCR9 Ca2+ IC50
T1 sequence (P51686 1-369): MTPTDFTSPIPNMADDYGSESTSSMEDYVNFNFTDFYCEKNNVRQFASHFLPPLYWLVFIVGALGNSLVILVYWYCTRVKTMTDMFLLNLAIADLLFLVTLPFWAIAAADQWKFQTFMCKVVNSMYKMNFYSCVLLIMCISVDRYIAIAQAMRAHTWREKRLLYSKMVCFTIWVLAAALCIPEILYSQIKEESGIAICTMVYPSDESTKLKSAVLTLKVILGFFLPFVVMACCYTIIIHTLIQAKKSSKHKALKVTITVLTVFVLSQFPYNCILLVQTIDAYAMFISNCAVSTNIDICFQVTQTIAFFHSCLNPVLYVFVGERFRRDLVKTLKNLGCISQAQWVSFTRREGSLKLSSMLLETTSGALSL
Description: Calcium Mobilization Assay:
Cells expressing CCR9 receptor (MultiSpan, Hayward, Calif.) were seeded in 384-well plates. Ca^2+ assays were conducted after overnight culture in the plates according to the manufacturer's protocol using Screen Quest™ Fluo-8 no wash kit (AAT Bioquest, Sunnyvale, Calif.). Dye loading buffer was added to the cells and incubated for 45 minutes at 37° C. followed by 15 minutes incubation at room temperature. Compounds in the presence of 0.1% DMSO were applied to the cells during calcium flux measurement. Calcium flux was monitored for 90 seconds with compound application after 10 seconds. For antagonist mode, cells were preincubated with the compound at room temperature for 10 minutes before the application of the control agonist TECK (Preprotech, Rocky Hill, N.J.) at EC80 concentration of 0.01 uM obtained from dose-response curves of control agonist.

Molt-4 cells = assay: Chemotaxis assay of Molt-4 cells towards TECK; assay type: cell-based; details: Molt-4 cells in HBSS buffer with 0.1% BSA, TECK at EC80
Description: Molt-4 cells were harvested and re-suspended in HBSS buffer with 0.1% BSA or in 100% human serum. Cell suspensions were mixed with compound solutions for 10 min and then seeded onto the upper chamber of the ChemoTX chemotaxis plates with 5 μm pore size polycarbonate membrane from NeuroProbe (Gaithersburg, Md.). EC80 concentration of TECK was applied in the bottom chamber. After 2 hours of incubation at 37° C., the assay was terminated by removing the upper chamber. The cells migrated into the bottom chamber were quantified with CyQUANT solution from Invitrogen (Grand Island, N.Y.).

[1] = Rat liver microsome clearance; assay type: in vitro ADME; details: for RLM CL (rat liver microsome hepatic clearance): first value of RLM/HLM cell; for Rat Microsome In Vitro CLint: 2 μM, 1 mg/mL rat hepatic microsomes, NADPH
Description: Microsomal In-Vitro Clearance:
The test articles (2 μM) were incubated for one hour in 1 mg/mL rat hepatic microsomes with 2 mM NADPH at 37° C. with aliquots removed at t=0, 15, 30 and 60 minutes. Incubations were terminated at the specified times by protein precipitation, and samples were centrifuged. Resultant supernants were analyzed by LC-MS/MS for the amount of incubated compound remaining, and the half life (t1/2) and intrinsic microsomal clearance rate (CLint) of each compound was calculated.

[2] = Human liver microsome clearance; assay type: in vitro ADME; details: second value of RLM/HLM cell
[3] = pH-solubility (high-throughput, buffers); assay type: physicochemical; details: for Sol. pH 4: 1000 ug compound in 1 mL pH 4 buffer; for Sol. pH 7: 1000 ug compound in 1 mL pH 7 buffer; for Sol. pH 9: 1000 ug compound in 1 mL pH 9 buffer; for Solubility pH 4: pH 4 (Table 6); for Solubility pH 7.4: pH 7.4 (Table 6); for Solubility pH 9: pH 9 (Table 6)
Description: Solubility of representative acidic triazoles was measured in 3 buffer systems (pH 4, 7.4 and 9) using an in-house high-throughput solubility method. A stock solution of test article was prepared in DMA (20 mg/ml) and spiked into each buffer system (20× dilution) to target 1 mg/ml concentration. The samples were vortexed briefly and equilibrated for 24 hr at RT. Samples were then filtered using 0.22u PVDF membrane filters and analyzed for drug concentration using HPLC.

Rat PK (i.v./p.o.) = assay type: in vivo; details: for Rat In vivo CL: i.v.; for increase in oral bioavailability: compound 39 vs compound 6, compound 42 vs compound 40; for % F (p.o.) / Oral AUC/D: oral; for % F (p.o.): 6: co-solvent (pH 9), 39, 40, 42: co-solvent + surfactant (pH 9); for Oral AUC/D: formulation as in Table 6
Description: Sprague Dawley Rats (n=3) were dosed both intravenously and orally with a solution formulation followed by plasma collection at time points providing sufficient coverage of the absorption, distribution, metabolism and excretion phases of the test article. Test article concentrations at each time point were determined by LC-MS detected bioanalytical analysis. Non-compartmental pharmacokinetic analysis of the intravenous bioanalytical data provided area under the curve, clearance, volume of distribution, and terminal half life parameters while similar analysis of plasma samples from animals dosed orally provided area under the curve, bio-available fraction and oral terminal half life pharmacokinetic parameters.
Rats (n of 3) were dosed both intravenously and orally with the various compounds. Plasma samples were collected at time points chosen to provide sufficient coverage of the absorption, distribution, metabolism and excretion phases of the test compound. LC-MS detected bioanalytical analysis was performed on the plasma samples utilizing a standard curve and quality control samples to provide enough precision and accuracy to determine the concentrations test article for plasma from each time point. Non-compartmental pharmacokinetic analysis of the intravenous bioanalytical data provided area under the curve, clearance, volume of distribution, terminal half life parameters while similar analysis of plasma samples from animals dosed orally provided area under the curve, bio-available fraction and oral terminal half life pharmacokinetic parameters (see FIG. 1).

[4] = Rat plasma protein binding (equilibrium dialysis); assay type: in vitro ADME; details: fraction unbound
Description: Plasma and Microsome Protein Binding:
Protein binding was measured via high throughput equilibrium dialysis with the HTDialysis device fitted with a 12,000 to 14,000 Da molecular weight cutoff membrane. Rat plasma or 1 mg/mL rat hepatic microsomes spiked with test article were dialyzed vs. phosphate buffer for 6 hours. Aliquots were removed from both sides of the membrane and diluted with equal volumes of the opposite matrix. Following protein precipitation and centrifugation, the resultant matrix matched supernatants were analyzed by LC-MS to compare the plasma or microsome dialysate test article signal to the buffer signal. Test article stability was monitored during the course of the assay.

[5] = In-vitro precipitation time in simulated gastric and intestinal fluids; assay type: physicochemical; details: oral dosing solution
Description: Dosing solutions at 1 mg/mL for rat PK studies were prepared using either a pH+co-solvent approach or pH+cosolvent+surfactant approach. The total amounts of cosolvent and surfactant used in the solution formulations ranged from 5-8% v/v and q.s. with pH 9 phosphate buffer. Solutions were assessed for their potential for in-vivo precipitation using an in-vitro dilution test (1:1, 1:4 and 1:9) in simulated gastric and intestinal fluids.

Row | LipE (CCR9 receptor) | IC50 (Molt-4 cells; Homo sapiens) [nM] | RLM CL (rat liver microsome hepatic clearance) [1] [mL/min/kg] | HLM CL (human liver microsome hepatic clearance) [2] [mL/min/kg] | Sol. pH 4 [3] | Sol. pH 7 [3] | Sol. pH 9 [3] | IC50 (CCR9 receptor) [nM] | Rat Microsome In Vitro CLint [1] [mL/min/kg] | Rat In vivo CL as % Hepatic Blood Flow (Rat PK (i.v./p.o.)) [%] | Rat In vivo CL (Rat PK (i.v./p.o.)) [mL/min/kg] | Rat Plasma Protein Binding (PPB) Fu [4] | SMILES | also measured
1 | 4.2 | 150 | 16 | 11 | 79 ug/mL | 117 ug/mL | 914 ug/mL | 8 |  |  |  |  | CCOc1nc2nc(CC)c(Cc3ccc(C(C)(C)C)cc3)c(O)n2n1 [Compound 19] | 
2 |  |  |  |  |  |  |  |  | 171 | 15 | 8 | 0.010 | COCc1nc2nc(C)c(Cc3ccc(C(C)(C)C)cc3)c(O)n2n1 [Compound 41] | 
3 |  |  |  |  |  |  |  |  | 373 | 7 | 4 | 0.010 | Cc1nc2nc(OCCO)nn2c(O)c1Cc1ccc(C(C)(C)C)cc1 [Compound 42] | increase in solubility at pH 4 ([3]; compound 42 vs compound 40): ~7 fold; increase in solubility at pH 7.4 ([3]; compound 42 vs compound 40): ~30 fold; Solubility pH 4 [3]: 0.045 mg/ml; Solubility pH 7.4 [3]: 0.61 mg/ml; Solubility pH 9 [3]: 1 mg/ml; increase in oral bioavailability (Rat PK (i.v./p.o.)): 3 fold; % F (p.o.) (Rat PK (i.v./p.o.)): 43%; Oral AUC/D (Rat PK (i.v./p.o.)): 1.25 ug · hr/ml/(mg/kg)

Further lines, the molecule ahead of its results:

Row | SMILES | LipE (CCR9 receptor) | IC50 (Molt-4 cells; Homo sapiens) [nM] | RLM CL (rat liver microsome hepatic clearance) [1] [mL/min/kg] | HLM CL (human liver microsome hepatic clearance) [2] [mL/min/kg] | Sol. pH 4 [3] | Sol. pH 7 [3] | Sol. pH 9 [3] | IC50 (CCR9 receptor) [nM] | Rat Microsome In Vitro CLint [1] [mL/min/kg] | Rat In vivo CL as % Hepatic Blood Flow (Rat PK (i.v./p.o.)) [%] | Rat In vivo CL (Rat PK (i.v./p.o.)) [mL/min/kg] | Rat Plasma Protein Binding (PPB) Fu [4] | also measured
4 | Cc1nc2ncnn2c(O)c1Cc1ccc(C(C)(C)C)cc1 [Compound 11] | 4.4 | 480 | 51 | 19 | 13 ug/mL | 136 ug/mL | > 1000 ug/mL |  |  |  |  |  | Vd (in words) (Rat PK (i.v./p.o.)): moderate; half-life (in words) (Rat PK (i.v./p.o.)): short; in vivo CL (in words) (Rat PK (i.v./p.o.)): high; oral bioavailability (in words) (Rat PK (i.v./p.o.)): low
5 | CC(C)c1nc2ncnn2c(O)c1Cc1ccc(C(C)(C)C)cc1 [Compound 23] | 4.0 | 340 | 44 | 13 | 2 ug/mL | 7 ug/mL | 358 ug/mL | 52 |  |  |  |  | 
6 | CCc1nc2ncnn2c(O)c1Cc1ccc(C2(C)CCOCC2)cc1 [Compound 35] | 5.7 | 380 | 37 | 17 | >1000/>1000/>1000 ug/mL | >1000/>1000/>1000 ug/mL | >1000/>1000/>1000 ug/mL | 22 |  |  |  |  | 
7 | CCc1nc2ncnn2c(O)c1Cc1ccc(C(C)(C)COC)cc1 [Compound 36] | 5.9 | 60 | 49 | 20 | 62 ug/mL | > 1000 ug/mL | > 1000 ug/mL | 13 |  |  |  |  | 
8 | COCc1nc2nc(O)c(Cc3ccc(C(C)(C)C)cc3)c(COC)n2n1 [Compound 38, 6-(4-(tert-butyl)benzyl)-2,7-bis(methoxymethyl)-[1,2,4]triazolo[1,5-a]pyrimidin-5-ol] | 5.9 |  | 15 | 5 | 132 ug/mL | 999 ug/mL | 989 ug/mL | 13 | 21 | 9 | 5 | 0.010 | IC50 (Molt-4 cells): 200 nM; metabolic stability (in words) [1]: improved; solubility (in words) [3]: improved; Vd (in words) (Rat PK (i.v./p.o.)): low; exposure (in words) (Rat PK (i.v./p.o.)): good; in vivo CL (in words) (Rat PK (i.v./p.o.)): relatively low
9 | Cc1nc2nc(CO)nn2c(O)c1Cc1ccc(C(C)(C)C)cc1 [Compound 39] |  |  |  |  |  |  |  |  |  |  |  |  | Solubility pH 4 [3]: 0.024 mg/ml; Solubility pH 7.4 [3]: 0.26 mg/ml; Solubility pH 9 [3]: 1 mg/ml; In-vitro Precipitation Time (Visual assessment), SGF ([5]; simulated gastric fluid): SGF: 60 min; In-vitro Precipitation Time (Visual assessment), SIF ([5]; simulated intestinal fluid): SIF: >240 min; increase in oral bioavailability (Rat PK (i.v./p.o.)): approximately 4 fold; % F (p.o.) (Rat PK (i.v./p.o.)): 43%; Oral AUC/D (Rat PK (i.v./p.o.)): 0.32 ug · hr/ml/(mg/kg)
